Assay results from patent US20110142829A1, “ANTI-TUMOUR COMPOSITIONS AND METHODS” (priority 2008, published 2011).
Where two headings read alike, the source gives them in different places.

Key:
[1] = system: A549 lung cancer cells; details: for Tumour Growth Inhibition (TGI): A549 tumours in nude mice, cisplatin 5 mg/kg; for Tumour Growth Inhibition (TGI) / mean tumour volume on day 21: oltipraz 100 mg/kg; for mean tumour volume on day 1: day 1 (initiation of treatment); for mean tumour volume on day 21: cisplatin 5 mg/kg day 2, vehicle control 536 mm^3
[2] = oltipraz 100 mg/kg po days 1, 3, 8, 10, given with Cetuximab
[3] = formulated with CMC

Row | Compound | Tumour Growth Inhibition (TGI) [1] [%] | mean tumour volume on day 1 [1] [mm^3] | mean tumour volume on day 21 [1] [mm^3] | toxicity based on observations of survival and weight change [2] | average weight gain, % of starting weight by day 21 (female nude mice with A549 tumours, cisplatin 5 mg/kg sc day 2, oltipraz 100 mg/kg po (alone days 1, 3, 8, 10; combination days 1 and 3), day 21) [%] | toxicity based on observations of survival and weight change (oltipraz alone 100 mg/kg po days 1, 3, 8, 10) | amount that can be administered without significant toxicity resulting [3]
1 | N.N.[Cl][Pt][Cl] [cisplatin, cis-diamminedichloridoplatinum(II)] | 48.8 | 93 | 275 | – | – | – | –
2 | Cc1c(-c2cnccn2)ssc1=S [oltipraz, 4-methyl-5(2-pyrazinyl)-3H-1,2-dithiole-3-thione] | 62.3 | 93 | 200 | no evidence of toxicity | 4.9 | no evidence of toxicity | up to 2000 mg/kg
